Experimental findings from PubChem BioAssay AID489027 (Sanford-Burnham Center for Chemical Genomics, 2010) are described below.

The source made the active and inactive calls. No rule for the calls is given here.

For orientation: EC50 means the concentration that produces a half-maximal response.

For the experiment, the target named is UPR counterscreen luciferase reporter, luminescence. Put plainly: activators in UPR counterscreen luciferase reporter, dose response, counter-screen for adaptive UPR activator project, cell-based, luminescence (AID 489027). Background: Counterscreens check selectivity or assay interference.
`COc1ccc(C(=O)O/N=C/c2c(C(F)(F)F)nn(C)c2SCc2ccccc2Cl)cc1`: the EC50 entry is “inactive”.
With `O=C1NC(=O)C(=Cc2cn(CCOc3ccc4c(c3)OCO4)c3ccccc23)C(=O)N1` the figure was 18.5 µM; with `CCOc1cc(/C=C2/NC(=S)NC2=O)ccc1OCc1ccc([N+](=O)[O-])cc1`, “inactive”.
With `C/C(=N/NC(=O)c1ccc(C)s1)c1cccc(NC(=O)COc2ccc(Cl)cc2C)c1` the figure was 20 µM; with `CC1CCC(C(C)C)C(OC(=O)Cn2c(-c3ccc(Cl)cc3)[n+](C)c3ccccc32)C1` (centres undefined), 13.4 µM; with `CCc1ccccc1NC(=O)C(CC)Sc1nc2cc3c(cc2c(=O)n1Cc1ccco1)OCO3` (centres undefined), 11.6 µM.
Turning to `N#Cc1ccccc1/C=N/Nc1nc(-c2ccccc2)c2cc(Cl)ccc2n1`, the EC50 was 15.7 µM.
As to `CC1=Nc2ccccc2/C1=C\c1sc(Nc2ccc(C)cc2)nc1O`, the EC50 is 17.3 µM.
In the case of `CC1CCCN(c2ccc(C(=O)NCc3cccs3)cn2)C1` (centres undefined), the EC50 was > 80 µM (inactive).
Consider `Cn1nc(C(F)(F)F)c(/C=N/OC(=O)c2ccccc2)c1SCc1ccc(Cl)cc1`, for which the EC50 result is “inactive”.
With `CCOC(=O)c1nnc(-c2ccc(C)cc2)nc1Sc1ccccc1Cl` the figure was 14.8 µM; with `CC(C)c1ccc(C2C3=C(COC3=O)Nc3cc4c(cc32)OCO4)cc1` (centres undefined), “inactive”; with `CCOC(=O)C1=C(C)N=C2SC(C(=O)OC)=CC(=O)N2C1c1ccc(F)cc1` (centres undefined), > 80 µM (inactive).
Turning to `Cc1nc2cc(NC(=O)CSc3nc4c(C)cccc4cc3C#N)ccc2s1`, the EC50 was > 80 µM (inactive).
As for `Cn1ncc(N=Cc2c(O)ccc3ccccc23)c1C(=O)Nc1cccc(Cl)c1`, the EC50 was > 80 µM (inactive).
Take `COc1cc(/C=C2/C(=N)N3C=CSC3=NC2=O)ccc1OCCCOc1cc(C)ccc1C`: the EC50 was > 80 µM (inactive).
For `CCOC(=O)c1c(NC(=O)CSc2nnc3c(n2)[nH]c2ccc(F)cc23)sc(C(C)=O)c1C` the value was 17.4 µM; for `Cc1ccc(C(=O)Cn2c(C(=O)/C=C/c3ccccc3)nc3ccccc32)cc1`, 10.9 µM.
For the compound `CN(C)c1ccc(/C=C/[N+](=O)[O-])cc1`, the EC50 is 12.6 µM.
With `COC(=O)c1cc([N+](=O)[O-])c(-n2ccnc2)c([N+](=O)[O-])c1` the figure was > 80 µM (inactive); with `Cc1ccc(-c2ccnc(-c3ccc(O)cc3)n2)cc1`, > 80 µM (inactive); with `CCOc1ccc(C(=O)Nc2ccc(NC(=O)c3ccco3)c(Cl)c2)cc1Cl`, 8.74 µM.
In the case of `N#C/C(=C\c1ccc(N2CCCC2)c([N+](=O)[O-])c1)c1nc2ccccc2[nH]1`, the EC50 is > 80 µM (inactive).
As for `N#Cc1ccc(N/N=C/c2cn(-c3ccccc3)nc2-c2ccccc2)c([N+](=O)[O-])c1`, the EC50 entry is “inactive”.
For `COc1ccc(S(=O)(=O)N2c3cc(Cl)ccc3Oc3nc4ccccc4nc32)cc1`, the EC50 was > 80 µM (inactive).
For `Cc1cc(NC(=O)c2cncc(Br)c2)ccc1NC(=O)c1cc2ccccc2o1` the value was > 80 µM (inactive); for `O=C(Nc1ccc(SC(F)F)cc1)c1cc(-c2ccncc2)nc2ccccc12`, > 80 µM (inactive).
On to `Cc1ccc(-n2c(O)c(/C=N/c3ncc(Br)cc3Br)c(=O)[nH]c2=O)cc1`, for which the EC50 entry is “inactive”.
`Cc1ccc(C(C(=O)NCc2ccco2)N(C(=O)CNC(=O)c2cccs2)c2c(C)cc(C)cc2C)cc1` (centres undefined): the EC50 entry is “inactive”.
For the compound `CCOc1ccc(-n2nc3ccc(NC(=O)c4ccc5c(c4)OCCO5)cc3n2)cc1`, the EC50 result is “inactive”.
Regarding `CCc1ccc2[nH]c3nc(SCc4nnc(-c5ccc(C)cc5)o4)nnc3c2c1`, the EC50 entry was “inactive”.
For the compound `O=C1c2cccc3cc(Br)cc(c23)C(=O)N1Nc1ccc(Br)cc1`, the EC50 entry is “inactive”.
As for `CCn1cc(C(=O)NC(=S)Nc2sc3c(c2C(=O)OC)CCCCCC3)cn1`, the EC50 result was “inactive”.
For `COc1ccc(-c2nn(C)c(=O)c3ccccc23)cc1NC(=O)Cn1nc(C)c2ccccc2c1=O` the value was > 80 µM (inactive).
For `O=C(NCC1CCCO1)c1nn2c(C(F)(F)F)cc(-c3cc(Br)cs3)nc2c1Br` (centres undefined), the EC50 is > 80 µM (inactive).
For `O=C(Nc1nc(-c2ccc3ccccc3c2)cs1)c1ccc(N2C(=O)CCC2=O)cc1` the value was > 80 µM (inactive); for `Cc1ccc(-c2nn(CC(=O)NCc3cc(-c4nn(C)c(=O)c5ccccc45)ccc3C)c(=O)c3ccccc23)cc1`, 13.1 µM; for `COc1ccccc1NC(=O)c1cc2c(CO)cnc(C)c2oc1=Nc1ccccc1`, 13.3 µM.
With `O=C(Nc1nc2ccc(Cl)cc2s1)c1ccc(N2CCCCC2)c([N+](=O)[O-])c1` the entry was “inactive”; with `COc1ccc(OC)c(-c2nnc3n2N=C(c2ccc(OC)c(OCC4CC4)c2)CS3)c1`, > 80 µM (inactive); with `Cc1ccc(-c2nnn(CC(=O)N(Cc3cccs3)C(C(=O)NC3CCCCC3)c3ccco3)n2)o1` (centres undefined), > 80 µM (inactive).
With `C=CCN=C1S/C(=C/c2cccc([N+](=O)[O-])c2)C(=O)N1CC=C` the entry was “inactive”; with `CCN(CC)c1ccc(N=Cc2c(O)n(-c3ccc(Cl)cc3)c(=O)[nH]c2=O)cc1`, 20 µM.
Turning to `COc1ccc([N+](=O)[O-])cc1COc1ccc2c(-c3ccccc3)cc(=O)oc2c1`, the EC50 result is “inactive”.
Consider `Cc1ccc(-c2nnc(-c3ccc(NC(=O)c4cccs4)cc3)o2)cc1`, for which the EC50 was 12.1 µM.
For the compound `CCOC(=O)Cc1csc(/N=C/c2c(O)n(-c3ccc(C)c(C)c3)c(=O)c3ccccc23)n1`, the EC50 was 7.15 µM.
Regarding `Cc1nn(Cc2c(Cl)cccc2Cl)c(C)c1NC(=O)c1sc2ccccc2c1Cl`, the EC50 is 18.5 µM.
As for `CC1CCCCC1N1CN=C(Nc2nc3ccccc3s2)NC1` (centres undefined), the EC50 was > 80 µM (inactive).
Turning to `Cc1ccccc1NC(=O)c1ccc(N/N=C/c2ccccc2O)c([N+](=O)[O-])c1`, the EC50 was 7.98 µM.
With `COc1cccc(/C=N/Nc2ccc([N+](=O)[O-])cn2)c1O` the figure was > 80 µM (inactive); with `COc1ccc(OC)c(Nc2nc(NCc3ccco3)nc(N)c2[N+](=O)[O-])c1`, “inactive”; with `Cc1cc(NC(=O)CSc2ccc(-c3nc4cc(C)c(C)cc4[nH]3)cn2)no1`, “inactive”.
With `OCCCn1c(C2CCCN2c2nc(-c3ccc(Cl)cc3)cs2)nc2cc(Cl)c(N3CCCCC3)cc21` (centres undefined) the entry was “inactive”; with `Cc1nn(Cc2ccccc2)c(C)c1NC(=O)CSc1nc(C2CC2)nc2c1cnn2-c1ccccc1`, “inactive”.
As to `COc1ccc(-c2nc3scc(-c4ccc(OC)c(OC)c4)c3c(=O)o2)cc1`, the EC50 was > 80 µM (inactive).
With `Cc1c(CCOC(=O)C23CC4(C)CC(C)(CC(C)(C4)C2)C3)sc[n+]1CC(=O)c1ccccc1` the figure was > 80 µM (inactive).
For `Cc1ccc(CN2C(=O)C(=O)c3cc(C)ccc32)cc1`, the EC50 entry was “inactive”.
With `O=C(N/N=C/c1ccc(Cl)cc1)c1sccc1OCc1ccc(F)cc1` the entry was “inactive”.
`O=C(N/N=C/c1ccc(O)c(O)c1)c1ccc(CSc2cccc3cccnc23)cc1`: the EC50 was 15.2 µM.
As for `Cc1cc(C)c2c(c1)/C(=c1/sc3n(c1=O)CN(c1ccccc1)CN=3)C(=O)N2`, the EC50 was 10.5 µM.
Consider `CC1CCN(Cc2c(C(=O)N/N=C/c3ccc(C(F)(F)F)cc3)nnn2-c2nonc2N)CC1`, for which the EC50 was > 80 µM (inactive).
For `O=[N+]([O-])c1ccc(N/N=C/c2ccc(OCc3cccc4ccccc34)cc2)nc1` the value was > 80 µM (inactive); for `CC(=O)Nc1ccccc1Sc1ccc2c3c(cccc13)C(=O)N(c1ccc(C)cc1)C2=O`, > 80 µM (inactive).
With `Cc1cc(NC(=O)c2cc(-c3ccncc3)nc3ccccc23)ccc1Br`, the EC50 was > 80 µM (inactive).
Turning to `CCOc1cc(CNC(C)(C)CO)cc(Br)c1OCc1ccc(Cl)cc1Cl`, the EC50 was > 80 µM (inactive).
For `O=c1oc(CCCO)cc2ccc(/C=C/c3cccc([N+](=O)[O-])c3)cc12` the value was > 80 µM (inactive).
With `CC(C)c1ccc(/C=C/C(=O)Nc2nc3ccc([N+](=O)[O-])cc3s2)cc1` the entry was “inactive”; with `CC(=O)c1cccc(Nc2nc(-c3cccc([N+](=O)[O-])c3)cs2)c1`, > 80 µM (inactive).
With `COc1cc(OC)c2c(-c3cccc(-c4ccc(CO)cc4)c3)cc(=O)oc2c1`, the EC50 was > 80 µM (inactive).
For `CCOc1ccc(NC(=S)NC(=O)/C=C/c2ccc(OC)c(OC)c2)c([N+](=O)[O-])c1` the value was > 80 µM (inactive); for `O=C(Nc1nc(-c2ccc(F)c(F)c2)cs1)Nc1ccc(F)cc1F`, 13.4 µM.
As for `Clc1ccc2c(c1)C(N1CCNCC1)Cc1ccccc1S2` (centres undefined), the EC50 is > 80 µM (inactive).
For `CCOC(=O)c1c(NC(=O)Cc2cccs2)sc(C(=O)NC2CCCCC2)c1C` the value was > 80 µM (inactive).
In the case of `Brc1cc(Br)c2ncnc(N3CCCCC3)c2c1`, the EC50 result was “inactive”.
With `Cc1cc(C)cc(NC(=O)/C(C#N)=C/c2cn(CC(=O)NCc3ccco3)c3ccccc23)c1` the figure was 7.27 µM; with `O=C(Nc1ccc(C(F)(F)F)cc1)c1cc(-c2cccnc2)nc2ccc(Br)cc12`, 11.5 µM.
As to `CN(C)CCOc1ccc(-c2c(-c3ccccc3)sc3ccccc23)cc1`, the EC50 is 17 µM.
As for `O=C(/C=C/c1ccccc1)NC(NC(=S)Nc1cccc(Cl)c1)C(Cl)(Cl)Cl` (centres undefined), the EC50 was > 80 µM (inactive).
With `O=C(/C=C1\NC2(CCCC2)Cc2ccccc21)C(=O)N/N=C/c1ccc(O)c(O)c1` the figure was 10.4 µM; with `O=C(Nc1ccc(Oc2ccc(NC(=O)Nc3ccccc3Cl)cc2)cc1)Nc1ccccc1Cl`, > 80 µM (inactive).
As for `Cc1ccc(-c2nc(N/N=C/c3cccc([N+](=O)[O-])c3)c3ccccc3n2)cc1`, the EC50 is > 80 µM (inactive).
With `Cc1ccc(Cc2cnc(NC(=O)/C(C#N)=C/c3ccc(-c4cccc([N+](=O)[O-])c4)o3)s2)cc1` the figure was 12 µM.
With `COc1cc(CNCCO)cc(Cl)c1OCc1ccc(Cl)cc1Cl` the figure was > 80 µM (inactive); with `O=C(N/N=C/C(Br)=C\c1ccccc1)c1n[nH]c2c1CCC2`, “inactive”.
